Results on five compounds are retold here after US6759424B2, “Imidazolidine derivatives, their preparation, their use, and pharmaceutical preparations comprising them” (Aventis Pharma Deutschland GmbH, priority 1997, dated 2004).

The target of this test is T1, interaction between VCAM-1 and VLA-4 (Homo sapiens, UniProt P05556+P13612).
T1 construct: supplied in their natural form as surface molecules on human U937 cells; host or cells: U937 cells carry VLA-4; The VCAM-1(1-3)-IgG partner was made by transient transfection of COS cells (ATCC CRL1651) and used as culture supernatant
T1 sequence (P13612 34-1032): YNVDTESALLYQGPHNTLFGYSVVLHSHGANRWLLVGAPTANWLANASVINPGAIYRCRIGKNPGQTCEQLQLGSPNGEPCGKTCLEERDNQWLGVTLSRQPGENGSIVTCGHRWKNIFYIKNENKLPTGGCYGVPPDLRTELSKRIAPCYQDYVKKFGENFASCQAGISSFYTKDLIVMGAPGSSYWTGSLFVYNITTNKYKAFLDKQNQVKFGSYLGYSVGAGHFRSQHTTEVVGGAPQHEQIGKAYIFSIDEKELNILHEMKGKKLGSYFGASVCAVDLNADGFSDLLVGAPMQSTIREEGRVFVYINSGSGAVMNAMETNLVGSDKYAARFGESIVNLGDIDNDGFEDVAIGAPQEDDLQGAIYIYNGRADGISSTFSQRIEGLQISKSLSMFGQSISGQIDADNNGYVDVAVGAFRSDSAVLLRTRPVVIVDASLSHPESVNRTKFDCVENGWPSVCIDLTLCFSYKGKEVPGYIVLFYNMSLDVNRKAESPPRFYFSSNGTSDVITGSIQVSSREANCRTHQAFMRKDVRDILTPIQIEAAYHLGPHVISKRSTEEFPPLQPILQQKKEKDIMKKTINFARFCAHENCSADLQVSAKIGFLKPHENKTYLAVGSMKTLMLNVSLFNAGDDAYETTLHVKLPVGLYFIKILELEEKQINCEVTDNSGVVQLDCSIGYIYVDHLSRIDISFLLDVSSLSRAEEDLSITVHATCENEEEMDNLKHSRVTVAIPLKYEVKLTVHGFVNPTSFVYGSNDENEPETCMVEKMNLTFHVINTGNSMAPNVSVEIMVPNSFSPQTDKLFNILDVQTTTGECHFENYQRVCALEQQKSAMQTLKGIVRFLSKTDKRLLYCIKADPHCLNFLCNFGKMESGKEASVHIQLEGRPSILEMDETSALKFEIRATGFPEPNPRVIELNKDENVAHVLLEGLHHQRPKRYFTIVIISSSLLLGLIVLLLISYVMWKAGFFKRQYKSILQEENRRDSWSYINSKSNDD
T1 sequence (P05556 21-798): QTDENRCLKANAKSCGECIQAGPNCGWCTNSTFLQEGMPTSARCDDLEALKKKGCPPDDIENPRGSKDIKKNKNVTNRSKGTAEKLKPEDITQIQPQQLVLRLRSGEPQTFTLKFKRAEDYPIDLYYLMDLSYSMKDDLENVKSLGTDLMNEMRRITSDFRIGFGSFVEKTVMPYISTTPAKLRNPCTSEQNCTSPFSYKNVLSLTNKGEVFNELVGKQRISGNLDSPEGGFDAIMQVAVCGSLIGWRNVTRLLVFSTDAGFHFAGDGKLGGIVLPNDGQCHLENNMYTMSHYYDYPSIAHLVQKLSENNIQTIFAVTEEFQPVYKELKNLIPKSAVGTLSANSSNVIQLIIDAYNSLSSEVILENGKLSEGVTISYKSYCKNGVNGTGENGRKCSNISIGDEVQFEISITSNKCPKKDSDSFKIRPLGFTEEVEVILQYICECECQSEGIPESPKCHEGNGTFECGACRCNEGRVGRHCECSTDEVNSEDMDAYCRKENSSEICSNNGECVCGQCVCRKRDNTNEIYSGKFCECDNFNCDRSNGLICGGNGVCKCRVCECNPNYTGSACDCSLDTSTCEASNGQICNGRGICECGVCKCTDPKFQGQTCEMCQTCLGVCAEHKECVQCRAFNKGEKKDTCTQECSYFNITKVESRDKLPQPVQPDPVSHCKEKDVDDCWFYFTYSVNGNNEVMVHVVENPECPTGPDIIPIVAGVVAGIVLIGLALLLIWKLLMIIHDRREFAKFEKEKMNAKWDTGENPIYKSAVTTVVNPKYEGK
In words: U937/VCAM-1 cell adhesion test (adhesion of U937 cells to hVCAM-1(1-3)-IgG). The format is cell-based. The conditions noted are these: human U937 cells adhering to hVCAM-1(1-3)-IgG; concentration giving 50% inhibition of adhesion. An excerpt:
The test method used for the activity of the compounds of the formula I on the interaction between VCAM-1 and VLA-4 is an assay which is specific for this interaction. The cellular binding components, i.e., the VLA-4 integrins, are supplied in their natural form as surface molecules on human U937 cells (ATCC CRL 1593), which belong to the leucocytes group. The specific binding components used are genetically engineered recombinant soluble fusion proteins, consisting of the extracytoplasmatic domain of human VCAM-1 and the constant region of a human immunoglobulin of the subclass IgG1.
Assay for the Measurement of the Adhesion of U937 Cells (ATCC CRL 1593) to hVCAM-1 (1-3)-IgG
1. Preparation of Human VCAM-1(1-3)-IgG and Human CD4-IgG
A genetic construct for the expression of the extracellular domain of human VCAM-1, associated with the genetic sequence of the heavy chain of human immunoglobulin IgG1 (hinge, CH2 and CH3 regions), from Dr. Brian Seed, Massachusetts General Hospital, Boston, USA was employed (cf. Damle and Aruffo, Proc. Natl. Acad. Sci. USA 1991, 88, 6403-6407). The soluble fusion protein hVCAM-1(1-3)-IgG contained the three amino-terminal extracellular immunoglobulin-like domains of human VCAM-1 (Damle and Aruffo, Proc. Natl. Acad. Sci. USA 1991, 88, 6403). CD4-IgG (Zettlmeissl et al., DNA and Cell Biology 1990, 9, 347) served as a fusion protein for negative controls. The recombinant proteins were expressed as soluble proteins after DEAE/dextran-mediated DNA transfection in COS cells (ATCC CRL1651) according to standard procedures (Ausubel et al., Current Protocols in Molecular Biology, John Wiley & Sons, Inc., 1994).
2. Assay for the Measurement of the Adhesion of U937 Cells to hVCAM-1(1-3)-IgG
2.1 96-well microtiter test plates (Nunc Maxisorb) were incubated at room temperature for 1 hour with 100 μl/well of a goat-anti-human IgG antibody solution (10 μg/ml in 50 mM tris, pH 9.5). After removal of the antibody solution, washing was carried out once with PBS.
2.2 150 μl/well of a blocking buffer (1% BSA in PBS) was incubated on the plates at room temperature for 0.5 hour. After removal of the blocking buffer, washing was carried out once with PBS.
2.3 100 μl per well of a cell culture supernatant of transfected COS cells were incubated on the plates at room temperature for 1.5 hours. The COS cells were transfected with a plasmid which codes for the three N-terminal immunoglobulin-like domains of VCAM-1, coupled to the Fc part of human IgG, (hVCAM-1 (1-3)-IgG). The content of hVCAM-1 (1-3)-IgG was about 0.5-1 μg/ml. After removal of the culture supernatant washing was carried out once with PBS.
2.4 The plates were incubated at room temperature for 20 minutes with 100 μl/well of Fc receptor blocking buffer (1 mg/ml of γ-globulin, 100 mM NaCl, 100 μM MgCl2, 100 μM MnCl2, 100 μM CaCl2, 1 mg/ml of BSA in 50 mM HEPES, pH 7.5). After removal of the Fc receptor blocking buffer washing was carried out once with PBS.
2.5 20 μl of binding buffer (100 mM NaCl, 100 μM MgCl2, 100 μM MnCl2, 100 μM CaCl2, 1 mg/ml of BSA in 50 mM HEPES, pH 7.5) were initially introduced, and the substances to be tested were added in 10 μl of binding buffer and incubated for 20 minutes. The controls used were antibodies against VCAM-1 (BBT, No. BBA6) and against VLA-4 (Immunotech, No. 0764). […]
Take `CC(C)C(C(=O)NC[C@H](NC(=O)OCC12CC3CC(CC(C3)C1)C2)C(=O)O)N1C(=O)N(Cc2ccccc2)C(C)(c2ccccc2)C1=O` (stereo partly drawn) [Example 4, (S)-3-((R,S)-2-((R,S)-4-Phenyl-3-benzyl-4-methyl-2,5-dioxoimidazolidin-1-yl)-2-isopropylacetylamino)-2-(1-adamantylmethyloxycarbonylamino)-propionic acid]: the IC50 – broadly, the concentration needed to halve the response being measured – amounted to 45 µM. This counts as double-digit micromolar.

Take `CC1(c2ccccc2)C(=O)N(CC(=O)N[C@@H](CC(=O)O)C(=O)N[C@H](C(=O)O)c2ccccc2)C(=O)N1Cc1ccccc1` (stereo partly drawn) [Example 7, ((R,S)-4-Phenyl-3-benzyl-4-methyl-2,5-dioxoimidazolidin-1-yl)acetyl-L-aspartyl-L-phenylglycine]: the IC50 came to 8 µM.

As for `C[C@]1(c2ccc(CO)cc2)C(=O)N(CC(=O)N[C@@H](CC(=O)O)C(=O)N[C@H](C(=O)O)c2ccccc2)C(=O)N1Cc1ccccc1` [Example 8, ((S)-4-(4-Hydroxymethylphenyl)-3-benzyl-4-methyl-2,5-dioxoimidazolidin-1-yl)acetyl-L-aspartyl-L-phenylglycine], half-maximal inhibition (IC50) required 4.5 µM.

In the case of `C[C@]1(c2ccc(CO)cc2)C(=O)N(CC(=O)NC[C@H](NC(=O)OCC23CC4CC(CC(C4)C2)C3)C(=O)O)C(=O)N1Cc1ccccc1` [Example 9, (S)-3-(((S)-4-(4-Hydroxymethylphenyl)-3-benzyl-4-methyl-2,5-dioxoimidazolidin-1-yl)acetylamino)-2-(1-adamantylmethyloxycarbonylamino)propionic acid], the IC50 turned out to be 4 µM.

For `CC1(c2ccc(O)cc2)C(=O)N(CC(=O)N[C@@H](CC(=O)O)C(=O)N[C@H](C(=O)O)c2ccccc2)C(=O)N1Cc1ccccc1` (stereo partly drawn) [Example 10, ((R,S)-4-(4-Hydroxyphenyl)-3-benzyl-4-methyl-2,5-dioxoimidazolidin-1-yl)acetyl-L-aspartyl-L-phenylglycine], 9.5 µM corresponded to half-maximal inhibition (IC50).
